A short description of the data set: physchem. The note with it: thermodynamic from solid. The method, then: Each polycarboxylic acid was added to the water or acetic acid solution while mixing and kept at the appropriate temperature until the solution became supersaturated as visually determined at least 20 minutes after addition of the polycarboxylic acid.

Broadly, the solubility is the concentration that dissolves in the medium under given conditions.

Where only a bound is given, the exact number is not on record here.

As for `O=C(O)CCCCCCCCCCC(=O)O` [DDDA, dodecanedioic acid], the solubility was below 0.2 mg/mL (20 °C, organic solvent or mixture); below 0.03 mg/mL (23 °C, water); above 100 mg/mL (70 °C, organic solvent or mixture); below 0.12 mg/mL (70 °C, water); below 1 mg/mL (water).

Source of the values: patent US9517996B2, “Purification of polycarboxylic acids” (Verdezyne, Inc., priority 2014, dated 2016).
